PMC5884652, “New antimicrobial peptide kills drug-resistant pathogens without detectable resistance” (Oncotarget, 2018)
Ends that are not written are not given here.

Assays:
[1] = tested on: S. aureus CCARM 0027-infected hairless mice; assay: Dermal infection and inflammation model; assay type: in vivo, mouse
Procedure: Male hairless mouse (aged 6 weeks, 5 mouse/group, total 7 groups) were injected intraepidermal with S. aureus CCARM 0027 (1 × 10^8 cfu/ml). The CSP-4 peptide (200, 100, 50, 25 μg/ml) was injected intraeptidermal into mice at 1 h after the S. aureus CCARM 0027 injection, samples of inflamed skin was collected after 7 days and 4-μm-thick sections were prepared as described in the preceding section. Each sample was then incubated for 30 min at 24° C with 5% bovine serum albumin, mouse anti-Toll-like receptor-2 (TLR-2) (AbFrontier, AB24192), mouse monoclonal anti-TNF-α (AbFrontier, AB1793), and mouse polyclonal anti-IL-1β (AbFrontier, AB1413). The samples were then washed with Tris-buffered saline containing Tween 20 buffer and incubated with HRP LF-SA5001-conjugated goat anti-mouse IgG, and stained with hematoxylin and eosin. The stained sections were examined under a fluorescence microscope.
Western blot analysis was performed as using changes in protein expression. Briefly, proteins extracted from the hairless mouse skin were separated for 3 h using 15% SDS-polyacrylamide gel electrophoresis and transferred to polyvinylidene fluoride membranes (Bio-Rad, Hercules, CA, USA) for 1 h at 90 V. The membranes were then incubated overnight at 4° C in 5% skim milk containing anti-GAPDH (LF-PA0018; Santa Cruz Biotechnology, Santa Cruz, CA, USA), mouse anti-TLR2 (AbFrontier, AB24192), mouse anti-NF-κB, (Santa Cruz Biotechnology, SC-71675), mouse anti-TNF-α (AbFrontier, AB1793), mouse anti-IL-1β (AbFrontier, AB1413), and mouse anti-cathelicidin (AbFrontier, AB93357). The membranes were then washed in Tris-buffered saline containing Tween 20 and incubated with the horseradish peroxidase (HRP)-conjugated secondary antibodies LF-SA5002 goat anti-rabbit IgG and LF-SA5001 goat anti-mouse IgG. The blots were developed using a Western Blot Detection kit (AbFrontier, LF-QC0103).
For scanning electron microscopy (SEM), S. aureus cells were cultured in LB medium (pH 5.5 or pH 7.4), washed 3 times with 10 mM sodium phosphate buffer, and stirred at 4000 rpm. CSP-4 was added to the cells and incubated at 25° C. After incubation, the cells were fixed in 4% glutaraldehyde for 20 min and dehydrated in 50% and then 100% ethanol (10 min each step) at 37° C. In addition, 7 days after inducing inflammation in hairless mouse skin tissue by infection with drug-resistant S. aureus CCARM 0027 strain or E. coli bacteria, samples of skin tissue were isolated, washed in PBS, fixed in 4% paraformaldehyde overnight at 4° C, and dehydrated in 50% and then 100% ethanol (2 h each step) at 37° C. Samples were then gold-coated and visualized by SEM (JSM-7100F; JEOL, Tokyo, Japan).

S. aureus 5156 = assay: microbe, parasite or virus in culture; assay type: cell-based, Staphylococcus aureus; conditions: pH 7.4 (II); 10 mM sodium phosphate buffer, 10% LB; 37° C, 24 h; mean of 3 experiments
Summary of the method: (§1)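 Grow strains at 37° C in medium at pH 5.5 or 7.4 to mid-log; resuspend in 10 mM sodium phosphate buffer, matching pH, with 10% medium. Add 5 × 10^5 cfu/mL to twofold dilutions (peptides 0.25–128 μM, antibiotics 0.25–256 μM). Incubate 24 h, 37° C; read A600.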

S. aureus 3126 = assay: microbe, parasite or virus in culture; assay type: cell-based, Staphylococcus aureus; conditions: pH 7.4 (II); 10 mM sodium phosphate buffer, 10% LB; 37° C, 24 h; mean of 3 experiments
Summary of the method: as §1

S. aureus 3359 = assay: microbe, parasite or virus in culture; assay type: cell-based, Staphylococcus aureus; conditions: pH 7.4 (II); 10 mM sodium phosphate buffer, 10% LB; 37° C, 24 h; mean of 3 experiments
Summary of the method: as §1

S. aureus 2122 = assay: microbe, parasite or virus in culture; assay type: cell-based, Staphylococcus aureus; conditions: pH 7.4 (II); 10 mM sodium phosphate buffer, 10% LB; 37° C, 24 h; mean of 3 experiments
Summary of the method: as §1

S. aureus 3511 = assay: microbe, parasite or virus in culture; assay type: cell-based, Staphylococcus aureus; conditions: pH 7.4 (II); 10 mM sodium phosphate buffer, 10% LB; 37° C, 24 h; mean of 3 experiments
Summary of the method: as §1

S. aureus 1870 = assay: microbe, parasite or virus in culture; assay type: cell-based, Staphylococcus aureus; conditions: pH 7.4 (II); 10 mM sodium phosphate buffer, 10% LB; 37° C, 24 h; mean of 3 experiments
Summary of the method: as §1

S. aureus 3518 = assay: microbe, parasite or virus in culture; assay type: cell-based, Staphylococcus aureus; conditions: pH 7.4 (II); 10 mM sodium phosphate buffer, 10% LB; 37° C, 24 h; mean of 3 experiments
Summary of the method: as §1

S. aureus 4761 = assay: microbe, parasite or virus in culture; assay type: cell-based, Staphylococcus aureus; conditions: pH 7.4 (II); 10 mM sodium phosphate buffer, 10% LB; 37° C, 24 h; mean of 3 experiments
Summary of the method: as §1

S. aureus 1635 = assay: microbe, parasite or virus in culture; assay type: cell-based, Staphylococcus aureus; conditions: pH 7.4 (II); 10 mM sodium phosphate buffer, 10% LB; 37° C, 24 h; mean of 3 experiments
Summary of the method: as §1

S. aureus 5157 = assay: microbe, parasite or virus in culture; assay type: cell-based, Staphylococcus aureus; conditions: pH 7.4 (II); 10 mM sodium phosphate buffer, 10% LB; 37° C, 24 h; mean of 3 experiments
Summary of the method: as §1

In the case of FLRFIGSVKHGKGHLVHHIGVAL-NH2 [CSP-4], the “Epidermal thickness and immune cell infiltration” value ([1]; 200 µg/mL and 100 µg/mL, skin collected after 7 days, hematoxylin and eosin) is reported as “dose-dependent decrease”, the “TLR-2, NF-κB, TNF-α, IL-1β, and cathelicidin levels in skin” value ([1]; 200 μg/mL or 100 μg/mL, Western blot) is reported as “concentration-dependent decreases” and the “Dermal collagen and elastin, uninfected mice treated with peptide alone” value ([1]; CSP-4 alone (200 µg/mL), SEM) is reported as “not damaged”. For the same substance, the “Collagen and elastin damage in infected skin” value ([1]; SEM, 7 days after infection) was “dose-dependently reduced”, the MIC (S. aureus 5156) was 8 µM and the MIC (S. aureus 3126) was 8 µM. The MIC (S. aureus 3359) was 8 µM, the MIC (S. aureus 2122) was 8 µM and the MIC (S. aureus 3511) was 8 µM. For the same substance, the MIC (S. aureus 1870) was 8 µM, the MIC (S. aureus 3518) was 8 µM and the MIC (S. aureus 4761) was 8 µM. For the same substance, the MIC (S. aureus 1635) was 8 µM and the MIC (S. aureus 5157) was 8 µM.
